The target of one experiment is GSPT1 (Homo sapiens (Human), UniProt P15170+Q96SW2). Briefly: Immunofluorescence assay for GSPT1 degradation in CAL-Si cells. The class given is cell-based. Conditions: CAL-Si cells. How it is done:
The compounds were tested in an immunofluorescence assay for their activity to bind to degrade GSPT1. CAL-Si cells were purchased from DSMZ (cat. Number ACC302), sub-cultured in 90% Dulbecco's MEM (4.5 g/L glucose, Gibco 11965)+10% heat inactivated FBS (BioConcept, 2-01F136I) and incubated at 37° C., 5% CO2. For the assay, imaging microtiterplate Cell Carrier 96 Ultra (Perkin Elmer 6055302) were pre-coated with Fibronectin (Sigma F085, 30 μl at 0.2 μg/ml) in PBS (100 μl, Gibco 14190) for 45 min at room temperature, rinsed with PBS and CAL-Si cells (30K cells/well) were plated and let to adhere overnight. Cells were treated with compounds typically using a serial dilution ranging from 30 μM to 0.1 nM for 6 hours. Compounds were stored at 10 mM DMSO stocks. Vehicle (DMSO), positive (CC-885, 10 μM) and rescue controls (positive control plus 0.2 μM bortezomib) were also included at this stage. Cells were subsequently rinsed with PBS and fixed in 10% Formalin solution (50 μl, Sigma HT5011)) for 20 mins at room temperature. Following three consecutive PBS washes (100 μl), cells were permeabilized in 0.1% Triton X-100 in PBS (Sigma 93443, 50 μl) for 15 mins at room temperature. Following three further PBS washes, 50 μl blocking buffer (1% BSA, Sigma A4503, in PBS) was added for 45 min for signal-to-noise reduction.
Primary antibody (human GSPT1, Sigma HPA052488) was diluted in blocking buffer (dil.1/300, 35 μl/well) and incubated with the cells overnight at 4° C. After three PBS washes, Alexa-fluor 488 coupled secondary antibodies (Invitrogen, A32731, dil.1/1000), Alexa-fluor 647-Phalloïdin (Invitrogen, A22287, dil.1/200) and DAPI (Thermo, #62248, dil.1/1000) were diluted in blocking buffer and incubated with the samples for 2 hours at room temperature. After three final PBS washes, samples were conserved in 100 μl PBS in the dark, until measurement. Image acquisition was performed on the Operetta High-Content Imager (Perkin-Elmer). Fluorescence intensity of Alexa-Fluor 488 (GSPT1), Alexa-Fluor 647 (Actin) and DAPI (Nucleus) were measured. For the determination of GSPT1 DC50 values, a custom algorithm implemented in the PerkinElmer image analysis software Harmony-Acapella® was developed. After user-defined setting of adjustment parameters, the analysis was run identically without human intervention for all image fields. DAPI staining of the nuclei was used to determine the location of cells using standard nuclei detection modules. Segmentation artifacts were removed by threshold-based filters for area, roundness and intensity. The outline of the cells was determined analogously from the sum of the normalized, smoothed DAPI and Actin channel, starting from each nucleus. The Alexa-Fluor 488 (GSPT1) signal intensity in each cell was finally measured, in order to obtain a Mean intensity per cell. GSPT1 degradation (DC50) was calculated after normalization to controls and data import in CDD vault Database, using non-linear regression.

Experiment [1] addresses Full length wild-type cereblon CRBN (Homo sapiens (Human), UniProt Q96SW2). The experiment is described as follows: Fluorescence polarization (FP) assay, cereblon binding. How it is done:
Compound activity was monitored in a fluorescence polarization (FP) homogeneous assay using 1-[5-({2-[2-(2-{[2-(2,6-dioxopiperidin-3-yl)-1,3-dioxo-2,3-dihydro-1H-isoindol-4-yl]oxy}acetamido)ethoxy]ethyl}carbamoyl)pentyl]-3,3-dimethyl-2-[(1E,3E)-5-[(2E)-1,3,3-trimethyl-5-sulfo-2,3-dihydro-1H-indol-2-ylidene]penta-1,3-dien-1-yl]-3H-indol-1-ium-5-sulfonate as a fluorescent probe. Unless otherwise stated, all reagents were purchased from Sigma Aldrich. Enzymatic reactions were conducted in Perkin-Elmer Black 384 well ProxiPlate Plus (catalogue no. 6008269) in 10 sL total volume. Full length wild-type cereblon CRBN (80.0 nM, 10 sL) was incubated in assay buffer containing 20 mM HEPES (pH 8.0), […], 0.5 mM TCEP and 0.05% Tween 20 in the presence or absence of compound (300 nL). Inhibitors were stored as 10 mM DMSO stocks in an inert environment (low humidity, dark, low oxygen, room temperature) using the Storage Pod System.
Compounds and DMSO were dispensed using the Echo E5XX (Labcyte Inc. USA) to give concentrations from 300 to 0.937 or 3000 to 9.3 nM in a 12 data point curve. […] Following incubation at room temperature for 30 min, the assay was initiated by dispensing the probe to a final concentration of 5 nM (2.5 nL of a 20 μM stock) using the Echo E5XX. FP was measured after a period of 12 hours using a Pherastar plate reader (BMG Labtech, Germany) exciting at 590 nm and measuring the amount of parallel and perpendicular light at 675 nm. The FP signal was subsequently normalized to the no-compound control (i.e., DMSO). Analysis and IC50 values were derived using Dotmatics (Dotmatics UK) software.
Background: Polarisation of emitted light reports the rotation of a fluorescent probe.

[2] abbreviates: treated 6 hours, read-out: Code, activity for GSPT1 degradation (DC50).
Setting [3] is: compounds with code A, read-out: DC50 value code.
The mark [4] stands for this setting: wild-type CRBN 80.0 nM, probe 5 nM, FP measured after 12 hours, read-out: rFP IC50.
[5] abbreviates: cereblon binding, bound, read-out: IC50 value.

Like-named read-outs stand apart in the source and are kept apart here.

Data on 19 molecules can be found in patent US20240051936A1, “ISOINDOLINONE COMPOUNDS” (Monte Rosa Therapeutics, Inc., priority 2021, published 2024).

As usually defined, the DC50 is the midpoint of the concentration-degradation curve. By IC50 is commonly meant the concentration that gives 50% inhibition.

Full length wild-type cereblon CRBN, sequence (Q96SW2 whole entry): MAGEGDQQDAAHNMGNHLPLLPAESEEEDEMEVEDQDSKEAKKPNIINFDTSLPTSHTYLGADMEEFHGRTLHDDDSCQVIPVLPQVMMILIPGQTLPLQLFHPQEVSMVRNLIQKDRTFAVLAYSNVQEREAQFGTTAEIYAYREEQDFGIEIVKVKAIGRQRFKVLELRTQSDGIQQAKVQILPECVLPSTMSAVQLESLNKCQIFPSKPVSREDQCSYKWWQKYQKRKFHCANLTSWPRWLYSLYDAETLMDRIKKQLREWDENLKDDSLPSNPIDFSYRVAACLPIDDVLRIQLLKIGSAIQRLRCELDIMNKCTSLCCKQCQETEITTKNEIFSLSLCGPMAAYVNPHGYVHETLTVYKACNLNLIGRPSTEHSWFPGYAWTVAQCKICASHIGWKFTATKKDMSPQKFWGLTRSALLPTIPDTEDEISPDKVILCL
GSPT1, sequence (P15170 whole entry): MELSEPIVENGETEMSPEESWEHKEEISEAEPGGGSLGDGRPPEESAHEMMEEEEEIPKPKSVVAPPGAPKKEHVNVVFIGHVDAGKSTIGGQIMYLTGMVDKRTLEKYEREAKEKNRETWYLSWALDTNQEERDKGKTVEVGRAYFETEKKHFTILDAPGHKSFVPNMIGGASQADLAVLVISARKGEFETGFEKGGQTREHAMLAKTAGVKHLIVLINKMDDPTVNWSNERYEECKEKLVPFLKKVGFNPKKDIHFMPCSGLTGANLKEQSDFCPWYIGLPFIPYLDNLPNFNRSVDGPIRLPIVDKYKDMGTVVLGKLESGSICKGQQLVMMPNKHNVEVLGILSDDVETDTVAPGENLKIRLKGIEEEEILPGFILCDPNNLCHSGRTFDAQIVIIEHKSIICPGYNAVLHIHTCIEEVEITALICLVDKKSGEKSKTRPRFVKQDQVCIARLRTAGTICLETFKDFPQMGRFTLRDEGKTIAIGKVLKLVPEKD
GSPT1, sequence (Q96SW2 whole entry): as the sequence (Q96SW2 whole entry) above
GSPT1, sequence (Q16531 whole entry partner): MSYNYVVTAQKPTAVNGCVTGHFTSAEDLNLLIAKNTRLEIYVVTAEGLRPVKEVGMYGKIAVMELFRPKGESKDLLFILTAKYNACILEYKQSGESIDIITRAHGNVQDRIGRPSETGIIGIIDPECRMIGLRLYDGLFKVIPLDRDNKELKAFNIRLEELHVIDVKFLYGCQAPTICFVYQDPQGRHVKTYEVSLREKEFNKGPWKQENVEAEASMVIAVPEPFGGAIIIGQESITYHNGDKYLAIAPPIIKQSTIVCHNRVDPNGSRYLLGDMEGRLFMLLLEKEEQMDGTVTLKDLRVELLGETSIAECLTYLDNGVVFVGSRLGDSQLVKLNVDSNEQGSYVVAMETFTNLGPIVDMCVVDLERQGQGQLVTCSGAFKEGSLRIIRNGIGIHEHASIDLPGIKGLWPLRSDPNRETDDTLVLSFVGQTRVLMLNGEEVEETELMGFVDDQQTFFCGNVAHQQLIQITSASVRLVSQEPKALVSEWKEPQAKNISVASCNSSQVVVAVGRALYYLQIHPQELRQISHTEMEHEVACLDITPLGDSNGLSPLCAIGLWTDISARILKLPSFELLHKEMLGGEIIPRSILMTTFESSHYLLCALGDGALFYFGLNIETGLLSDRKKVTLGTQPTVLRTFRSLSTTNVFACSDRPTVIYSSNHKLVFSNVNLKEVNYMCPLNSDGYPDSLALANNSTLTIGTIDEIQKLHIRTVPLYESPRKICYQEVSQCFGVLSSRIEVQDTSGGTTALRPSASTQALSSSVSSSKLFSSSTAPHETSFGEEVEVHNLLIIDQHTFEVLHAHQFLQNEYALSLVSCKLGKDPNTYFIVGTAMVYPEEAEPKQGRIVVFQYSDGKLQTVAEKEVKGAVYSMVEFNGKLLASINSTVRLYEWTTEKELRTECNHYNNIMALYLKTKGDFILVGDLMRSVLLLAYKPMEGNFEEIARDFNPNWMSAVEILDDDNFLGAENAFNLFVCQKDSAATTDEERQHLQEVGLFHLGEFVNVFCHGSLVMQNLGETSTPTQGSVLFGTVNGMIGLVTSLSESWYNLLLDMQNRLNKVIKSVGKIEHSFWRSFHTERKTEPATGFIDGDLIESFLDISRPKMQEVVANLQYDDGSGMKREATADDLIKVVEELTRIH

`COc1cc(COC(=O)Nc2cc(Cl)c(C)cc2F)cc2c1CN(C1CCC(=O)NC1=O)C2=O` (stereo not drawn) [Compound 68, (2-(2,6-dioxopiperidin-3-yl)-7-methoxy-3-oxoisoindolin-5-yl)methyl (5-chloro-2-fluoro-4-methylphenyl)carbamate]: the DC50 at GSPT1 (setting [2]) was over 300 nM.

On to `COc1cc(COC(=O)Nc2cccc(OC(F)(F)F)c2)cc2c1CN(C1CCC(=O)NC1=O)C2=O` (stereo not drawn) [Compound 55, (2-(2,6-dioxopiperidin-3-yl)-7-methoxy-3-oxoisoindolin-5-yl) methyl (3-(trifluoromethoxy)phenyl)carbamate], for which the DC50 on GSPT1 (setting [3]) and at GSPT1 (setting [2]) was under 30 nM each time. The IC50 in experiment [1] (setting [4]) was in the range of 600 to 1200 nM.

For the molecule `COc1cc(COC(=O)Nc2ccc(-c3ccccn3)cc2)cc2c1CN(C1CCC(=O)NC1=O)C2=O` (stereo not drawn) [Compound 42, (2-(2,6-dioxopiperidin-3-yl)-7-methoxy-3-oxoisoindolin-5-yl)methyl (4-(pyridin-2-yl)phenyl)carbamate], the 50% degradation concentration (DC50) on GSPT1 (setting [3]) and at GSPT1 (setting [2]) was under 30 nM in each case. Moreover, the concentration for half-maximal inhibition (IC50) in experiment [1] (setting [5]) was under 600 nM; in experiment [1] (setting [4]), 600 to 1200 nM.

As to `O=C1CCC(N2Cc3c(F)cc(COC(=O)Nc4cc(F)cc(OC(F)(F)F)c4)cc3C2=O)C(=O)N1` (stereo not drawn) [Compound 12, (2-(2,6-dioxopiperidin-3-yl)-7-fluoro-3-oxoisoindolin-5-yl)methyl(3-fluoro-5-(trifluoromethoxy)phenyl)carbamate], at GSPT1 (setting [2]), the DC50 is 30 to 300 nM. Besides, in experiment [1] (setting [4]), the IC50 was over 1900 nM.

On to `CC(C)(C)c1cccc(NC(=O)OCc2cc(F)c3c(c2)C(=O)N(C2CCC(=O)NC2=O)C3)c1` (stereo not drawn) [Compound 25, (2-(2,6-dioxopiperidin-3-yl)-7-fluoro-3-oxoisoindolin-5-yl)methyl (3-(tert-butyl)phenyl)carbamate], for which the DC50 on GSPT1 (setting [3]) and at GSPT1 (setting [2]) was under 30 nM throughout. Further, in experiment [1] (setting [4]), the concentration for half-maximal inhibition (IC50) is over 1900 nM.

For the molecule `COc1cc(COC(=O)Nc2cc(F)cc(OC(F)(F)F)c2)cc2c1CN(C1CCC(=O)NC1=O)C2=O` (stereo not drawn) [Compound 41, (2-(2,6-dioxopiperidin-3-yl)-7-methoxy-3-oxoisoindolin-5-yl)methyl (3-fluoro-5-(trifluoromethoxy)phenyl) carbamate], the 50% degradation concentration (DC50) at GSPT1 (setting [2]) is 30 to 300 nM. The concentration for half-maximal inhibition (IC50) in experiment [1] (setting [5]) is under 600 nM; in experiment [1] (setting [4]), 1200 to 1900 nM.

Take `Cc1ccc(NC(=O)OCc2ccc3c(c2C)C(=O)N(C2CCC(=O)NC2=O)C3)cc1Cl` (stereo not drawn) [Compound 73, (2-(2,6-dioxopiperidin-3-yl)-4-methyl-3-oxoisoindolin-5-yl)methyl(3-chloro-4-methylphenyl)carbamate]: the IC50 in experiment [1] (setting [4]) is at most 600 nM.

With `COc1cc(COC(=O)Nc2cc(F)cc(OC(F)F)c2)cc2c1CN(C1CCC(=O)NC1=O)C2=O` (stereo not drawn) [Compound 47, (2-(2,6-dioxopiperidin-3-yl)-7-methoxy-3-oxoisoindolin-5-yl)methyl(3-(difluoromethoxy)-5-fluorophenyl) carbamate], in experiment [1] (setting [5]), the IC50 is under 600 nM.

Regarding `COc1cc(COC(=O)Nc2ccc(N3CCCC3C)nc2)cc2c1CN(C1CCC(=O)NC1=O)C2=O` (stereo in doubt) [Compound 62, (2-(2,6-dioxopiperidin-3-yl)-7-methoxy-3-oxoisoindolin-5-yl)methyl (6-((R)-2-methylpyrrolidin-1-yl)pyridin-3-yl)carbamate], the IC50 was under 600 nM in experiment [1] (setting [5]) and at most 600 nM in experiment [1] (setting [4]).

For the molecule `COc1cc(COC(=O)Nc2ccc(F)c(OC(F)(F)F)c2)cc2c1CN(C1CCC(=O)NC1=O)C2=O` (stereo not drawn) [Compound 39, (2-(2,6-dioxopiperidin-3-yl)-7-methoxy-3-oxoisoindolin-5-yl)methyl(4-fluoro-3-(trifluoromethoxy)phenyl) carbamate], the IC50 in experiment [1] (setting [5]) is under 600 nM.

As to `Cc1cc(NC(=O)OCc2cc(F)c3c(c2)C(=O)N(C2CCC(=O)NC2=O)C3)cnc1-c1ccccc1` (stereo not drawn) [Compound 20, (2-(2,6-dioxopiperidin-3-yl)-7-fluoro-3-oxoisoindolin-5-yl)methyl(5-methyl-6-phenylpyridin-3-yl)carbamate], in experiment [1] (setting [5]), the IC50 is under 600 nM.

As to `Cc1cc(Cl)cc(NC(=O)OCc2cc(F)c3c(c2)C(=O)N(C2CCC(=O)NC2=O)C3)c1` (stereo not drawn) [Compound 27, (2-(2,6-dioxopiperidin-3-yl)-7-fluoro-3-oxoisoindolin-5-yl)methyl(3-chloro-5-methylphenyl)carbamate], the IC50 in experiment [1] (setting [5]) was under 600 nM.

Regarding `Cc1cc(F)c(NC(=O)OCc2cc(F)c3c(c2)C(=O)N(C2CCC(=O)NC2=O)C3)cc1Cl` (stereo not drawn) [Compound 64, (2-(2,6-dioxopiperidin-3-yl)-7-fluoro-3-oxoisoindolin-5-yl)methyl(5-chloro-2-fluoro-4-methylphenyl)carbamate], on GSPT1 (setting [2]), the DC50 lay within 30 to 300 nM.

For the molecule `COc1cc(COC(=O)Nc2ccc(C3CCC3)cc2)cc2c1CN(C1CCC(=O)NC1=O)C2=O` (stereo not drawn) [Compound 57, (2-(2,6-dioxopiperidin-3-yl)-7-methoxy-3-oxoisoindolin-5-yl)methyl(4-cyclobutylphenyl) carbamate], the IC50 in experiment [1] (setting [5]) is under 1200 nM.

`C[C@@H]1CCCN1c1ccc(NC(=O)OCc2cc(F)c3c(c2)C(=O)N(C2CCC(=O)NC2=O)C3)cn1` (stereo partly drawn) [Compound 23, (2-(2,6-dioxopiperidin-3-yl)-7-fluoro-3-oxoisoindolin-5-yl)methyl (6-((R)-2-methylpyrrolidin-1-yl)pyridin-3-yl)carbamate]: the concentration for half-maximal inhibition (IC50) in experiment [1] (setting [5]) was under 600 nM.

Turning to `Cc1cc(F)cc(NC(=O)OCc2cc(F)c3c(c2)C(=O)N(C2CCC(=O)NC2=O)C3)c1` (stereo not drawn) [Compound 63, (2-(2,6-dioxopiperidin-3-yl)-7-fluoro-3-oxoisoindolin-5-yl)methyl (3-fluoro-5-methylphenyl)carbamate], the DC50 on GSPT1 (setting [2]) fell in the range of 30 to 300 nM.

Take `CC(C)(C)c1ccc(NC(=O)OCc2cc(F)c3c(c2)C(=O)N(C2CCC(=O)NC2=O)C3)cn1` (stereo not drawn) [Compound 9, (2-(2,6-dioxopiperidin-3-yl)-7-fluoro-3-oxoisoindolin-5-yl)methyl(6-(tert-butyl)pyridin-3-yl)carbamate]: the IC50 in experiment [1] (setting [5]) was under 600 nM.

Take `O=C1CCC(N2Cc3c(F)cc(COC(=O)Nc4cc(OC(F)(F)F)ccc4F)cc3C2=O)C(=O)N1` (stereo not drawn) [Compound 65, (2-(2,6-dioxopiperidin-3-yl)-7-fluoro-3-oxoisoindolin-5-yl)methyl (2-fluoro-5-(trifluoromethoxy)phenyl) carbamate]: on GSPT1 (setting [2]), the DC50 is 30 to 300 nM.

For `CC1(C)COc2cc(NC(=O)OCc3cc(F)c4c(c3)C(=O)N(C3CCC(=O)NC3=O)C4)ccc21` (stereo not drawn) [Compound 17, (2-(2,6-dioxopiperidin-3-yl)-7-fluoro-3-oxoisoindolin-5-yl)methyl(3,3-dimethyl-2,3-dihydrobenzofuran-6-yl) carbamate], the IC50 in experiment [1] (setting [5]) is under 1200 nM.
